Measurements taken from patent US9283213B2, “Dihydropyridin-2(1H)-one compounds as S-nitrosoglutathione reductase inhibitors and neurokinin-3 receptor antagonists” (N30 Pharmaceuticals, Inc., priority 2010, dated 2016).

How the values were obtained:
[1] = target: T1, human NK3 receptor (Homo sapiens, UniProt P29371); assay: Human NK3 receptor binding assay determined by IC50; conditions: 0.4 nM [3H]SR142801; CHO cell membranes
T1 construct: expressed in transfected cells; host or cells: CHO cells
T1 sequence (P29371 1-465): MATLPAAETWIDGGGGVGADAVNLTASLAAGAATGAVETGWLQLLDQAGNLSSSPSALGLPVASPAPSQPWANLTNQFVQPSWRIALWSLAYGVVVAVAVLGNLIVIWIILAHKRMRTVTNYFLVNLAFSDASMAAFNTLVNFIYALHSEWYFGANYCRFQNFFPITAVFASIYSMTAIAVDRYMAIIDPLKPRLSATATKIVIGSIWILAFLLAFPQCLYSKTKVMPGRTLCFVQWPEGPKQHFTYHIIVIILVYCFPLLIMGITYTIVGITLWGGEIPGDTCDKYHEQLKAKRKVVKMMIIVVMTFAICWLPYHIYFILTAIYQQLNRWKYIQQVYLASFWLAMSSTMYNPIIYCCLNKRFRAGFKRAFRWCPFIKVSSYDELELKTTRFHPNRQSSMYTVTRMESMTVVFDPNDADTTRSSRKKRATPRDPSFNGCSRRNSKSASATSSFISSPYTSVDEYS
Procedure: Evaluation of the affinity of compounds for the human NK3 receptor from transfected CHO cells was performed using an antagonist radioligand binding assay. The antagonist activity of a representative subset of test compounds was evaluated over a range of concentrations, and the results were expressed as IC50 values.
Receptor binding assays were performed using crude membranes prepared from CHO cells expressing human NK3 receptor. Osanetant (SR142801), a non-peptide NK3 antagonist, was used as a ligand, and SB222200 was used as a positive control reference compound. […] The filters were rinsed several times with ice-cold 50 mM Tris/HCl using a 96-sample cell harvester (Unifilter, Packard), dried, and counted for radioactivity in a scintillation counter (Topcount, Packard) using a scintillation cocktail (Microscint 0, Packard). […] Nonspecific binding was determined in the presence of 10 μM SB222200. […] The IC50 values (concentration causing a half-maximal inhibition of control specific binding) and Hill coefficients (nH) were determined by non-linear regression analysis of the competition curves generated with mean replicate values using Hill equation curve fitting (Y=D+[(A−D)/(1+(C/C50)^nH)], where Y=specific binding, D=minimum specific binding, A=maximum specific binding, C=compound concentration, C50=IC50, and nH=slope factor). […]

[2] = target: T1, human NK3 receptor; assay: Human NK3 receptor binding assay at 10 μM; conditions: 10 μM test compound; 0.4 nM [3H]SR142801; CHO cell membranes; read-out: percent inhibition at 10 μM, human NK3 receptor binding
Procedure: Evaluation of the affinity of test compounds for the human neurokinin NK3 receptor from transfected CHO cells was performed using an antagonist radioligand binding assay. Antagonist activity was evaluated at a concentration of 10 μM for a representative subset of test compounds, and the results were expressed as the percent inhibition at that concentration.
Receptor binding assays were performed using crude membranes prepared from CHO cells expressing human NK3 receptor. Osanetant (SR142801), a non-peptide NK3 antagonist, was used as a ligand, and SB222200 was used as a positive control reference compound. The assay was performed with cell membrane homogenates (24 μg protein) incubated for 120 min at 22° C. with 0.4 nM [^3H]SR142801 in the absence or presence of the test compound in a buffer containing 20 mM Hepes/NaOH (pH 7.4), 120 mM NaCl, 1 mM MnCl2, 0.01% bacitracin, 0.002% aprotinin and 0.1% BSA. Following incubation, the samples were filtered rapidly under vacuum through glass fiber filters (GF/B, Packard) that had been presoaked with 0.3% PEI. The filters were rinsed several times with ice-cold 50 mM Tris/HCl using a 96-sample cell harvester (Unifilter, Packard), dried, and counted for radioactivity in a scintillation counter (Topcount, Packard) using a scintillation cocktail (Microscint 0, Packard). Each test compound was evaluated at a single concentration of 10 μM. The standard reference compound, SB222200, was tested in each experiment. Nonspecific binding was determined in the presence of 10 μM SB222200. The specific ligand binding to the receptor is defined as the difference between the total binding and the nonspecific binding. The results are expressed as a percent of control specific binding ((measured specific binding/control specific binding)×100) obtained in the presence of the test compounds.

[3] = target: T2, GSNOR (Homo sapiens, UniProt P11766); assay: GSNOR assay (inhibition of GSNOR activity in vitro); format: biochemical; conditions: 0.240 mM GSNO, 0.300 mM NADH, pH 7.4, 25° C.; read-out: GSNOR inhibitor IC50
T2 construct: made in house; host or cells: E. coli
Procedure: Various compounds were tested in vitro for their ability to inhibit GSNOR activity.
Pre-cultures were grown from stabs of a GSNOR glycerol stock in 2XYT media containing 100 ug/ml ampicillin after an overnight incubation at 37° C. Cells were then added to fresh 2XYT (4 L) containing ampicillin and grown to an OD (A600) of 0.6-0.9 at 37° C. before induction. GSNOR expression was induced with 0.1% arabinose in an overnight incubation at 20° C.
E. coli cell paste was lysed by nitrogen cavitation and the clarified lysate purified by Ni affinity chromatography on an AKTA FPLC (Amersham Pharmacia). The column was eluted in 20 mM Tris pH 8.0/250 mM NaCl with a 0-500 mM imidazole gradient. […] GSNOR was recovered in the flowthrough fraction and for crystallography is further purified by Q-Sepharose and Heparin flowthrough chromatography in 20 mM Tris pH 8.0, 1 mM DTT, 10 uM ZnSO4.
GSNO and Enzyme/NADH Solutions are made up fresh each day. The Solutions are filtered and allowed to warm to room temperature. GSNO Solution: 100 mM NaPO4 (pH 7.4), 0.480 mM GSNO. 396 μL of GSNO Solution is added to a cuvette followed by 8 μL of test compound in DMSO (or DMSO only for full reaction control) and mixed with the pipette tip. Compounds to be tested are made up at a stock concentration of 10 mM in 100% DMSO. 2 fold serial dilutions are done in 100% DMSO. 8 μL of each dilution are added to an assay so that the final concentration of DMSO in the assay is 1%. The concentrations of compounds tested range from 100 to 0.003 μM. Enzyme/NADH Solution: 100 mM NaPO4 (pH 7.4), 0.600 mM NADH, 1.0 μg/mL GSNO Reductase. 396 μL of the Enzyme/NADH Solution is added to the cuvette to start the reaction. The cuvette is placed in the Cary 3E UV/Visible Spectrophotometer and the change in 340 nm absorbance/min at 25° C. is recorded for 3 minutes. The assays are done in triplicate for each compound concentration. IC50's for each compound are calculated using the standard curve analysis in the Enzyme Kinetics Module of SigmaPlot.
Final assay conditions: 100 mM NaPO4, pH 7.4, 0.240 mM GSNO, 0.300 mM NADH, 0.5 μg/mL GSNO Reductase and 1% DMSO. Final volume: 800 μL/cuvette.

[4] = target: T1, human NK3 receptor; assay: Human NK3 receptor binding assay at 1 uM; conditions: 1 μM test compound; 0.4 nM [3H]SR142801; CHO cell membranes; read-out: percent inhibition at 1 μM, human NK3 receptor binding
Procedure: Evaluation of the affinity of compounds for the human NK3 receptor from transfected CHO cells was performed using an antagonist radioligand binding assay. Antagonist activity was evaluated at a concentration of 1 μM for a representative subset of test compounds, and the results were expressed as the percent inhibition at that concentration.
Receptor binding assays were performed using crude membranes prepared from CHO cells expressing human NK3 receptor. Osanetant (SR142801), a non-peptide NK3 antagonist, was used as a ligand, and SB222200 was used as a positive control reference compound. […] The filters were rinsed several times with ice-cold 50 mM Tris/HCl using a 96-sample cell harvester (Unifilter, Packard), dried, and counted for radioactivity in a scintillation counter (Topcount, Packard) using a scintillation cocktail (Microscint 0, Packard). Each test compound was evaluated at a single concentration of 1 μM. […] Nonspecific binding was determined in the presence of 10 μM SB222200. […] The results are expressed as a percent of control specific binding ((measured specific binding/control specific binding)×100) obtained in the presence of the test compounds.

T2 sequence (P11766 whole entry): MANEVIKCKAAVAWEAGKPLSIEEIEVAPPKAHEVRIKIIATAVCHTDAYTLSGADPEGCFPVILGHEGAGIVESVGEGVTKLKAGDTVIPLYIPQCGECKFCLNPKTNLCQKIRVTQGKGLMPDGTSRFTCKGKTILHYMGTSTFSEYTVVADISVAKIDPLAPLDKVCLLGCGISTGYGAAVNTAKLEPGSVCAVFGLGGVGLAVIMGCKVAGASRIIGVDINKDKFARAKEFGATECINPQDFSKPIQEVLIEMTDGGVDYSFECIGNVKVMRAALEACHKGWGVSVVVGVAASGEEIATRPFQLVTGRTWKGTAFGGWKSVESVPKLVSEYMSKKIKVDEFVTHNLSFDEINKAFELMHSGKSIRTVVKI

Row | SMILES | IC50 [1] [nM] | inhibition at 10 µM [2] [%] | IC50 [3] [nM] | inhibition at 1 µM [4] [%]
1 | O=C1CC(c2ccc(C(=O)O)c(O)c2)C(c2ccsc2)=C(c2ccccc2)N1 (stereo not shown) [Example 7, 2-hydroxy-4-(2-oxo-6-phenyl-5-(thiophen-3-yl)-1,2,3,4-tetrahydropyridin-4-yl)benzoic acid] | – | – | < 100 | –
2 | O=C1CC(c2cc(OCCO)c(O)c([N+](=O)[O-])c2)C(c2ccccc2)=C(c2ccccc2)N1 (stereo not shown) [Example 14, 4-(4-hydroxy-3-(2-hydroxyethoxy)-5-nitrophenyl)-5,6-diphenyl-3,4-dihydropyridin-2(1H)-one] | – | – | < 100 | > 50
3 | CCOc1cc(C2CC(=O)N(C)C(c3ccccc3)=C2c2ccccc2)cc([N+](=O)[O-])c1O (stereo not shown) [Example 16, 4-(3-ethoxy-4-hydroxy-5-nitrophenyl)-1-methyl-5,6-diphenyl-3,4-dihydropyridin-2(1H)-one] | – | – | – | > 50
4 | Cn1cc(C2=C(c3cccs3)C(c3cc(O)c(C(=O)O)c(F)c3)CC(=O)N2)cn1 (stereo not shown) [Example 17, 2-fluoro-6-hydroxy-4-(6-(1-methyl-1H-pyrazol-4-yl)-2-oxo-5-(thiophen-2-yl)-1,2,3,4-tetrahydropyridin-4-yl)benzoic acid] | – | – | < 100 | –

More lines, now with the values ahead:

Row | IC50 [1] [nM] | inhibition at 10 µM [2] [%] | IC50 [3] [nM] | inhibition at 1 µM [4] [%] | SMILES
5 | ~1100 | > 50 | < 100 | – | CCOc1cc(C2CC(=O)NC(c3ccccc3)=C2c2ccccc2)cc([N+](=O)[O-])c1O (stereo not shown) [Example 1, 4-(3-ethoxy-4-hydroxy-5-nitrophenyl)-5,6-diphenyl-3,4-dihydropyridin-2(1H)-one]
6 | – | > 50 | < 100 | – | CCOc1cc(C2CC(=O)NC(c3cccnc3)=C2c2ccsc2)cc([N+](=O)[O-])c1O (stereo not shown) [Example 2, 4-(3-ethoxy-4-hydroxy-5-nitrophenyl)-6-(pyridin-3-yl)-5-(thiophen-3-yl)-3,4-dihydropyridin-2(1H)-one]
7 | – | > 50 | < 100 | – | CCOc1cc(C2CC(=O)NC(c3cnn(C)c3)=C2c2ccsc2)cc([N+](=O)[O-])c1O (stereo not shown) [Example 4, 4-(3-ethoxy-4-hydroxy-5-nitrophenyl)-6-(1-methyl-1H-pyrazol-4-yl)-5-(thiophen-3-yl)-3,4-dihydropyridin-2(1H)-one]
8 | – | – | < 100 | – | Cn1cc(C2=C(c3ccsc3)C(c3ccc(C(=O)O)c(O)c3)CC(=O)N2)cn1 (stereo not shown) [Example 9, 2-hydroxy-4-(6-(1-methyl-1H-pyrazol-4-yl)-2-oxo-5-(thiophen-3-yl)-1,2,3,4-tetrahydropyridin-4-yl)benzoic acid]
